# Reference: patent publication US20080299566A1, “Methylation of Gene Promoters as a Predictor of Effectiveness of Therapy” (priority 2006, published 2008)
# Experiments:
# EAC cell line OE33 = assay: 5AzaC treatment of EAC cell line OE33; qMSP and real-time RT-PCR for Reprimo; assay type: cell-based; conditions: 1 μl of 5 mM 5AzaC per ml of cells every 24 hours for 6 days, harvested day 0, 2, 4, 6
# Description: (§1) DNA methylation of Reprimo was determined by qMSP using the ABI 7700 Taqman system (Eads C. A. et al., (2001)). MSP distinguishes methylated alleles of a given gene based on DNA sequence alterations after bisulfite treatment of DNA. Bisulfite treatment converts unmethylated but not methylated cytosines to uracils. Subsequent PCR using primers and probe specific to the corresponding methylated DNA sequence is then performed. (Eads C. A. et al., (2001)).
# (§2) The normalized MSP value (NMV) was calculated by dividing the ratio of the qMSP value for Reprimo to β-actin for each sample by the ratio of the qMSP value for Reprimo to, β-actin for Universal Methylated DNA (See Sato F. et al., Cancer Res., 62:6820-6822 (2002) and Shibata, D. M., et al., Cancer Res., 62:5637-5640 (2002)). Qualitative MSP status was determined by analyzing the normalized MSP value. A normalized MSP value of 0.05 was assigned as the cutoff point for classifying methylation status as qualitatively positive (≧0.05) or negative (<0.05). This cutoff point had been previously determined by ROC curve analysis (See Shibata, D. M., et al., (2002)).
# (§3) This treatment protocol has been published previously (Shibata, D. M., et al., Cancer Res., 62:5637-5640 (2002)). […]
# ESCC cell line KYSE 110 = assay: 5AzaC treatment of ESCC cell line KYSE 110; qMSP and real-time RT-PCR for Reprimo; assay type: cell-based; conditions: 1 μl of 5 mM 5AzaC per ml of cells every 24 hours for 6 days, harvested day 0, 2, 4, 6
# Description: as §1, §2, §3
smiles,measurement,setting,value
"Nc1ncn([C@H]2C[C@H](O)[C@@H](CO)O2)c(=O)n1 [5AzaC, 5-Aza-2′-Deoxycytidine]",Reprimo mRNA expression,EAC cell line OE33,increased Reprimo mRNA expression
same,Reprimo methylation (qMSP),EAC cell line OE33,reduction in Reprimo methylation
same,Reprimo mRNA expression,ESCC cell line KYSE 110,increased Reprimo mRNA expression
same,Reprimo methylation (qMSP),ESCC cell line KYSE 110,reduction in Reprimo methylation
